Test system: Clone #69 CHO-K1 cells expressing EA-NLS/NRS and GR-PL
Assay: EFC assay in stable clone #69 (CHO-K1, EA-NLS/NRS and GR-PL) with or without RU486 pre-incubation
Assay type: cell-based
Settings: overnight, vehicle pre-incubation
Method: In the next experiment, a stable clone (clone #69) expressing both EA-NLS/NRS and GR-PL was isolated in a CHO-K1 parental background. […] 20,000 cells/well were plated in a 96 well white coming multi-well plate and allowed to adhere overnight. The next day, the cells were washed two times with serum free F12 media and 100 μL of serum free F12 media was added to the cells. The cells were then incubated in either vehicle (ethanol-1% final concentration) or 10 μM RU486 for one hour. To the cells, three different concentrations of dexamethasone (300, 100, 30 μM) (an agonist of GR), RU486 (30, 10, 3.33 μM), colchicine (1, 0.3, 0.1 μ/mL) or nocodazole (10, 3.33, 1.11 μg/mL) were added and the incubation went overnight at 37° C. with 5% CO2. The next day, the media was aspirated off and 100 μL of Tropix/ABI Gal screen cell lysis/substrate reagent was added to the cells. The plate was read on the Victor II reader at 30, 60 and 120 minutes.

[1] = High conc (nocodazole 10 μg/mL, colchicine 1 μ/mL, dexamethasone 300 μM, RU486 30 μM)
[2] = Low conc (nocodazole 1.11 μg/mL, colchicine 0.1 μ/mL, dexamethasone 30 μM, RU486 3.33 μM)
[3] = Med conc (nocodazole 3.33 μg/mL, colchicine 0.3 μ/mL, dexamethasone 100 μM, RU486 10 μM)

| SMILES | Avg luminescence readout [1] | R1 luminescence readout [1] | R3 luminescence readout [1] | Ratio (Avg vs 0 conc) [1] | Avg luminescence readout [2] | R1 luminescence readout [2] | R3 luminescence readout [2] | Ratio (Avg vs 0 conc) [2] | Avg luminescence readout [3] | R1 luminescence readout [3] | R3 luminescence readout [3] | Ratio (Avg vs 0 conc) [3] |
| --- | --- | --- | --- | --- | --- | --- | --- | --- | --- | --- | --- | --- |
| CC#C[C@]1(O)CC[C@H]2[C@@H]3CCC4=CC(=O)CCC4=C3[C@@H](c3ccc(N(C)C)cc3)C[C@@]21C [RU486] | 2882 | 3199 | 2657 | 1 | 2416 | 2692 | 2298 | 1 | 2402 | 2578 | 2249 | 1 |
| C[C@@H]1C[C@H]2[C@@H]3CCC4=CC(=O)C=C[C@]4(C)[C@@]3(F)[C@@H](O)C[C@]2(C)[C@@]1(O)C(=O)CO [Dexamethasone, dexamethasone] | 2559 | 3173 | 1934 | 7 | 1258 | 1528 | 1016 | 3 | 1697 | 2033 | 1290 | 4 |

From US20070015232A1, “Mitotic index assay” (DiscoveRx, Inc., priority 2005, published 2007)
